Test results as given in patent publication US7632819B1, “Methods and compositions for inhibiting PKC delta cleavage for treatment and prevention of neurodegeneration and apoptosis” (Iowa State University Research Foundation, Inc., priority 2004, dated 2009).
Where two headings read alike, the source gives them in different places. Where a SMILES comes first, the peptide text is derived from it. The star is where a group is joined. Cbz = O=C(OCc1ccccc1)*; CH2F = FC*

Tested on: N27 cells
Details: for potency in attenuating apoptosis compared with caspase-3 inhibitor DEVD-FMK, in words: 6-OHDA model
Description: […] Z is the abbreviation for N-benzyloxycarbonyl. Untreated cells were used as control samples. After the treatment, the cells were collected by trypsinization (Trypsin 0.25%, 1 mM EDTA), centrifuged at 200×g for 5 min, washed with PBS twice, then lysed. The lysate was used for DNA fragmentation assay.
DNA fragmentation assays were performed using a recently developed Cell Death Detection ELISA Plus Assay Kit. This is a fast, highly sensitive and reliable assay for the detection of early changes in apoptotic cell death. After treatments, 20 μl of cell lysate was processed according to the manufacturer's protocol. The assay solution consisted of a mixture of anti-histone biotin and anti-DNA-HRP directed against various histones and antibodies to both single stranded DNA and double stranded DNA, the major constituents of nucleosomes. After 2 hr incubation, unbound components were removed by washing with the incubation buffer supplied with the kit. Quantification of the nucleosomes retained by anti-DNA-HRP in the immunocomplex was determined spectrophotometrically with ABTS (2,2′-azino-di[3-ethoxybenzyl thiazoline sulfonate) as a HRP substrate (supplied with the kit). Measurements were made at 405 nm against an ABTS solution as a blank (reference wave length 490 nm).
Chemicals. Protease cocktail, ATP, protein-A-sepharose, protein-G-sepharose and anti-â-actin antibody were obtained from Sigma-Aldrich (St. Louis, Mo.); mouse tyrosine hydroxylase antibody was purchased from Chemicon (Temecula, Calif.); the rabbit polyclonal antibody for tyrosine hydroxylase was obtained from Calbiochem Bioscience, Inc. (King of Prussia, Pa.); rabbit PKCδ antibody was purchased from Santa Cruz Biotechnology, Inc. (Santa Cruz, Calif.); anti-rabbit and anti-mouse secondary antibodies and the ECL chemiluminescence kit were purchased from Amersham Pharmacia Biotech. (Piscataway, N.J.). Alexa 488 conjugated antirabbit/mouse, Cy3 conjugated anti-rabbit/mouse antibody and Hoechst 33342 were purchased from Molecular Probes, Inc. (Eugene, Oreg.). [ã-32P]ATP was purchased from Perkin Elmer Life Science Products (Boston, Mass.). The Bradford protein assay kit was purchased from Bio-Rad Laboratories (Hercules, Calif.). RPMI, fetal bovine serum, -glutamine, penicillin, and streptomycin were purchased from Invitrogen (Gaithersburg, Md.). Quantity One 4.2.0 software was purchased from Bio-Rad. Design and synthesis of z-DIPD-fmk (SEQ ID NO:5). To develop a cell permeable peptide inhibitor to specifically block PKCδ cleavage, we designed the tetrapeptide Asp-Ile-Pro-Asp (DIPD) (SEQ ID NO:5) corresponding to position 324-327 in rat PKCδ cDNA representing the caspase-3 cleavage site. Since this peptide is directed against the caspase-3 cleavage site of PKCδ, it should prevent the proteolytic cleavage and activation of PKCδ mediated by caspase-3. The custom synthesis of the tetrapeptide Z-Asp(OMe)-Ile-Pro-Asp(OMe)-FMK (SEQ ID NO:5) was performed at MP Biomedicals (Irvine, Calif.), a quality company that specializes in developing cell permeable peptide inhibitors directed against apoptosis cell signaling molecules. Briefly, the synthesis was performed with the reaction of Boc-D(OMe)-OH with MBFM (Magnesium benzyl fluoromalonate) to produce Beta-Keto fluoroester, followed by hydrogenation with Pd/c to produce Boc-D(OMe)FK, which was converted into Tfa salt using trifluoroacetic acid. Coupling of Tfa salt with Z-D(OMe)—I—P—OH in DMF with HOBT, HBTU DIEA and workup produced a crude product which was purified by column chromatography over silica gel. Elution with EtOAC:MeOH 95:5 gave pure fractions which were mixed and dried. Crystallization with EtOAC/Hexane, filtration and drying produced the pure product. Animals.

## CC[C@H](C)[C@H](NC(=O)[C@H](CC(=O)OC)NC(=O)OCc1ccccc1)C(=O)N1CCC[C@H]1C(=O)N[C@@H](CC(=O)OC)C(=O)CF [z-DIPD-fmk, Z-Asp(OMe)-Ile-Pro-Asp(OMe)-FMK] (Cbz-D(OMe)IPD(OMe)-CH2F)
100 μM 6-OHDA 24 hr, concentration not stated or dose-response 1-50 μM, listed as N-benzyloxycarbonyl-Asp(OMe)-Ile-Pro-Asp(OMe)-FMK
  effect on 6-OHDA-induced DNA fragmentation / apoptotic cell death: effectively blocked
100 μM 6-OHDA 24 hr, inhibitor 50 μM
  effect on 6-OHDA-induced DNA fragmentation: completely blocked
300 μM MPP+ 36 hr, inhibitor 50 μM
  effect on MPP+-induced DNA fragmentation: significantly attenuated
  potency in attenuating apoptosis compared with caspase-3 inhibitor DEVD-FMK, in words: much more potent
Listed as N-benzyloxycarbonyl-Asp(OMe)-Ile-Pro-Asp(OMe)-FMK
  potency in attenuating apoptosis compared with caspase-3 inhibitor DEVD-FMK, in words: more potent
MPP+, inhibitor concentration not stated
  effect on MPP+-induced DNA fragmentation: dose-dependently attenuated
MPP+, inhibitor concentration not stated, listed as N-benzyloxycarbonyl-Asp(OMe)-Ile-Pro-Asp(OMe)-FMK
  effect on MPP+-induced DNA fragmentation: inhibited
From IC50 values
  potency relative to z-DEVD-fmk at protecting against 6-OHDA-induced apoptotic cell death: at least 3 times
Inhibitor as low as 3 μM
  effect on 6-OHDA-induced DNA fragmentation: almost completely inhibits
read-out: IC50, 6-OHDA-induced DNA fragmentation (apoptotic cell death), 100 μM 6-OHDA 24 hr, inhibitor 1-50 μM
  IC50: 6 µM
